Consider five compounds from patent US6057135A, “Process for manufacturing D-tagatose” (Kraft Foods, Inc., priority 1992, dated 2000).

In series [1] the target is T1, L-arabinose isomerase (Bacillus amyloliquefaciens, UniProt A0A9P1JJ98).
T1 construct: crude enzyme
T1 sequence (A0A9P1JJ98 1-499): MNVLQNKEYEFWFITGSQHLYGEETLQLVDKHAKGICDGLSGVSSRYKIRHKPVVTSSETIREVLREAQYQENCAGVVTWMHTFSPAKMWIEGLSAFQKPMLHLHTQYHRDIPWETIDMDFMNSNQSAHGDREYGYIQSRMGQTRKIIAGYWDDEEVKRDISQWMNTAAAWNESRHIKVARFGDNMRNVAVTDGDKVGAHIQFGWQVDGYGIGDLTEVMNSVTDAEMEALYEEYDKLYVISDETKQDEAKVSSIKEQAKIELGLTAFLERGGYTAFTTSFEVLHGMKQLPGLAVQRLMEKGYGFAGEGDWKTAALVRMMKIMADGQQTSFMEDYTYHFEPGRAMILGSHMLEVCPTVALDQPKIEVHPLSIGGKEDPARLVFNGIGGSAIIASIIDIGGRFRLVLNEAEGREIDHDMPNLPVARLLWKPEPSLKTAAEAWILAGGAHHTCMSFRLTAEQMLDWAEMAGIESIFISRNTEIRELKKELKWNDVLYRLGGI
The experiment in a line: L-arabinose isomerase bioconversion of D-galactose to D-tagatose, enzyme from Bacillus amyloliquefaciens IFO 3022. In kind it is biochemical. Particulars: for D-TAGATOSE / O.D. (X - B): 1.67 M D-galactose, 0.005 M metallic ion, 60° C., 120 min.; for O.D. (X - B): O.D. 540, dilution 200×. The procedure:
Bacillus amyloliquefaciens (previously known as Bacillus subtilis, IFO 3022, was evaluated as a source of L-arabinose isomerase. Cells of the culture were propagated on the same medium as used in Example 1 in the presence of L-arabinose as a carbon source. Optimum pH, temperature, metal ion and metal ion concentration were evaluated as summarized below.
In the following tests, sample B was comprised of 0.8 ml. D-galactose and 0.2 ml. water and sample X was comprised of 0.8 ml. D-galactose an 0.2 ml. enzyme. The dilution factor for the optical density (O.D.) reading was 200×. (The cystein carbazole method was used for the D-tagatose assay.)

Series [2] addresses T2, L-arabinose isomerase (Lactiplantibacillus pentosus, UniProt Q6UA74).
T2 construct: whole cells, sonicated cell-free extract or immobilized, from L-arabinose-induced culture
T2 sequence (Q6UA74 1-474): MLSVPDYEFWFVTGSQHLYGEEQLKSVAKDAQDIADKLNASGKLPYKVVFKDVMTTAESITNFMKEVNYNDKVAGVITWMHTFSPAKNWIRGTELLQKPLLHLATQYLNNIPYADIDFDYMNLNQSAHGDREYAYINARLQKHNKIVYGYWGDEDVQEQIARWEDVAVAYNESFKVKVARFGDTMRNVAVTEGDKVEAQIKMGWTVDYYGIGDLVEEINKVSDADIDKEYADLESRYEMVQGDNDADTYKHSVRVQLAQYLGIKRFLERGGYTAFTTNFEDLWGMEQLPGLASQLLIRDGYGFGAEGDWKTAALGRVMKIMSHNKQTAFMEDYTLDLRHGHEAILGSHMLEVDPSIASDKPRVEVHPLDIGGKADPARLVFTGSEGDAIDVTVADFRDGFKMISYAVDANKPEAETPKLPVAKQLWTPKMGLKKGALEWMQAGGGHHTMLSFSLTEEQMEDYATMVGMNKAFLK
The series can be described thus: L-arabinose isomerase activity assay (cysteine-carbazole ketose determination), enzyme from Lactobacillus pentosus ATCC 8041. The class given is biochemical. Particulars: for % Activity with activator (None = 100): metal ion activator, bioconversion of D-galactose; for Enzyme Activity: 10 minutes, 0.1 M L-arabinose or 0.2 M D-galactose as substrate. The procedure: The activity of L-arabinose isomerase can be assayed based on the appearance of keto-pentose (L-ribulose) or keto-hexose (D-tagatose) after incubation in the presence of the substrate aldo-pentose (L-arabinose) or aldo-hexose (D-galactose), respectively. The keto-pentose or keto-hexose can be measured colorimetrically utilizing cysteine-carbazole sulfuric acid as a reagent. The cysteine-carbazole method is described in, Zacharias Dische, "Color Reaction of Ketoses with Carbazole and Sulfuric Acid", Methods in Carbohydrate Chemistry (1962) page 481 [132]. Samples should be analyzed in duplicate, utilizing one sample as a blank to correct for substances which may interfere with the calorimetric ketose determination.
For purposes of this specification, one unit of L-arabinose isomerase activity is defined as that amount of enzyme which is required to produce one micromole of L-ribulose or D-tagatose from the respective substrates, L-arabinose or D-galactose, following ten minutes of incubation under assay conditions.
Following 24 hours of propagation, the cell mass was harvested and washed with a phosphate or maleate buffer at pH 6.5. The L-arabinose isomerase was extracted from the harvested cells by sonication.
To 1.0 ml of the bioconversion reaction medium (using a dilution factor if needed) the following is added:
0.2 ml of cystein hydrochloride (1.5% in water);
6.0 ml 75% sulfuric acid (450 ml conc. sulfuric acid+190 ml water); and
0.2 ml of 0.12% alcohol solution of carbazole (0.12 gram carbazole in 100 ml 95% ethanol).
The test tubes are incubated for 10 minutes at 57° C. and optical density (O.D.) is read at 540. The D-galactose substrate is used as a blank for reference.
A series of bioconversions were conducted with varied parameters to determine optimum conditions for Lactobacillus pentosus L-arabinose isomerase.

Series [3] deals with L-arabinose isomerase. The experiment in a line: L-arabinose isomerase bioconversion of D-galactose to D-tagatose, enzyme from Arthrobacter sp. ATCC 21920. The class given is biochemical. Particulars: for D-TAGATOSE / O.D. (X - B): 1.67 M D-galactose, 0.005 M metallic ion, 60° C., 120 min.; for O.D. (X - B): O.D. 540, dilution 200×. As to the method: The cultures were screened based on cell propagation on medium #1 of Example 3 in the presence of L-arabinose as a carbon source.
Cells of Arthrobacter sp. ATCC 21920 were propagated on medium #1 of Example 3 in the presence of L-arabinose as a carbon source. Optimum pH, temperature, metal ion and metal ion concentration were evaluated on the cell extract containing L-arabinose isomerase as summarized below.
In the following tests, sample B was comprised of 0.8 ml. D-galactose and 0.2 ml. water and sample X was comprised of 0.8 ml. D-galactose and 0.2 ml. enzyme. The dilution factor for the optical density (O.D.) reading was 200×.

Series [4] concerns L-arabinose isomerase. Particulars: cited from earlier work; for affinity of the isomerase for the sugar: Yamanaka and Wood, 1966.
For series [5], the target named is T3, L-arabinose isomerase (Mycolicibacterium smegmatis, UniProt Q9RHG2).
T3 construct: L-arabinose isomerases from Mycobacterium smegmatis induced by L-arabinose and D-galactose; host or cells: Mycobacterium smegmatis
Particulars: Izumori et al., 1978; cited from earlier work.

The conditions of series [6]: at about 25° C.; cited from earlier work.
Series [7] has as its system L-arabinose-L-ribulose-isomerase. To be noted: Simpson, 1958; cited from earlier work.

T3 sequence (Q9RHG2 whole entry): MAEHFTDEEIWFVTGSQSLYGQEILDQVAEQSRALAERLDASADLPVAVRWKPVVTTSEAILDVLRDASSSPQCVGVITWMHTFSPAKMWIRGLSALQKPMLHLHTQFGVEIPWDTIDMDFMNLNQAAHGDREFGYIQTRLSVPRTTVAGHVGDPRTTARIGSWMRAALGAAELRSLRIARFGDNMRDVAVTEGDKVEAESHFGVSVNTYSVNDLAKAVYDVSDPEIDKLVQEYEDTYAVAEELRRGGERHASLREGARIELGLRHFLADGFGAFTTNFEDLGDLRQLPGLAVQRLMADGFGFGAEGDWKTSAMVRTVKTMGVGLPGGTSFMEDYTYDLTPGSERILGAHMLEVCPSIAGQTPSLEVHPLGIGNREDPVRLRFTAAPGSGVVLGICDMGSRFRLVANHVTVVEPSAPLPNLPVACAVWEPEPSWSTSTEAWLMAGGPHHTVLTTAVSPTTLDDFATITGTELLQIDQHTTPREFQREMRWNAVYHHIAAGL

In the case of `[Ca]` [Calcium], the figures for the “D-TAGATOSE” value in series [1] and in series [3] were 9 mM and 0.033 M, respectively. The figures for the “O.D. (X - B)” value in series [1] and in series [3] were 0.1802 and 0.7107, respectively. Moreover, the “% Activity with activator (None = 100)” value in series [2] worked out at 143%.

Regarding `[Co+2]` [Cobalt], in series [1], the “D-TAGATOSE” value is 5 mM and the “O.D. (X - B)” value is reported as 0.0970. Besides, the “% Activity with activator (None = 100)” value in series [2] is reported as 200%. Besides, in series [3], the “D-TAGATOSE” value came out at 0.050 M and the “O.D. (X - B)” value stood at 1.0764.

For the compound `C[C@@H](O)[C@H](O)[C@H](O)[C@@H](O)C=O` [D-fucose], in series [4], the “affinity of the isomerase for the sugar” value is reported as “low affinity”.

Take `O=C[C@H](O)[C@@H](O)[C@@H](O)[C@H](O)CO` [D-galactose]: the “Km (D-galactose), as %” value was determined as 12% in series [1] (crude enzyme, B. amylo.); 20% in series [2] (crude enzyme, L. pentosus); 15% in series [3] (crude enzyme, Arthrobacter). For the same compound, the results for the “Enzyme Activity” value in series [2] (35° C.) and in series [2] (60° C.) were 0.07 u/ml and 0.90 u/ml, respectively. The “total activity, Present Invention Data” value in series [2] (substrate as labelled, propagation 24 hours, 37° C., pH 6.5, BYF 100 medium) was 395 u/L. Also, the “activity (10 min.), Present Invention Data” value in series [2] (substrate as labelled, propagation 24 hours, 37° C., pH 6.5, BYF 100 medium, per g cell mass) came to 45 u/g. In series [3] (D-galactose as a substrate, 10 min. incubation), the L-arabinose isomerase activity turned out to be 21 U/g/10 min. Moreover, the “activity of L-arabinose isomerase on the sugar” value in series [4] (Nakamatu, Biochim. Biophys. Acta 178) is listed as “slight”. In series [4], the “affinity of the isomerase for the sugar” value is recorded as “low affinity”. The “substrate of the isomerase” value in series [5] is “not a substrate of the isomerase”. In addition, the “maximum solubility in water” value in series [6] is given as “about 70 % by weight”. Further, the “substrate quality for L-arabinose-L-ribulose-isomerase” value in series [7] was “slow”.

For `[Fe+3]` [Ferric], the “D-TAGATOSE” value amounted to 18 mM in series [1] and 0.037 M in series [3]. Also, the “O.D. (X - B)” value is 0.3817 in series [1] and 0.8003 in series [3].
